What was measured:
Type in all cases: cell-based
[1] = system: five representative oral bacterial species: A. viscosus, L. casei, S. oralis, V. parvula and F. nucleatum; assay: Example 1: bacterial growth in the supernatant media of healthy biofilm model (absorbance); conditions: for % bacterial reduction (A): compound 0.01 wt. %, 48 hours, reduction in absorbance of supernatant media relative to disks treated with media alone
Experimental: (§1) 0.5″ Ca^2+-deficient hydroxyapatite (HAP) disks were coated with UV-sterilized human saliva overnight.
(§2) After 1 hour, excess treatment was removed by aspiration and disks were inoculated with 1 ml of bacteria from a continuous culture system at an OD(600) of about 0.2. The continuous culture system was maintained for approximately three months at 37° C. and contained five representative oral bacterial species: A. viscosus, L. casei, S. oralis, V. parvula and F. nucleatum. Previous work has shown this mix to form repeatable biofilms that can serve as a representation of the more complex mix of 500-700 bacterial species found in dental plaque.
(§3) The inoculated scHAP disks were incubated for 48 hours at 37° C. to allow a biofilm to form on them. After 48 hours of biofilm formation, disks were transferred to test tubes containing 1 ml of 0.25% trypsin solution. Disks were incubated at 37° C. with shaking for 45 minutes. The tubes were briefly vortexed to resuspend the bacteria, and the supernatants were then transferred to a fresh 24 well plate. Plates were […] for 2 minutes to pellet any residual HAP flakes and the supernatants were removed to fresh plates so that their absorbance could be measured at 610 nm. All samples were tested in triplicate and the average of the three wells was determined.
In addition to the absorbance of the trypsin-digested resuspended bacterial solution, similar absorbance measurements were also taken of the final supernatant media after the biofilms were allowed to grow for 48 hours.
The effect of 2-deoxy-D-glucose on bacterial growth in the supernatant media in which the biofilms were grown is shown in the table below.

[2] = system: biofilm of five representative oral bacterial species: A. viscosus, L. casei, S. oralis, V. parvula and F. nucleatum; assay: Example 1: healthy biofilm formation on saliva-coated HAP disks (absorbance at 610 nm after trypsin); conditions: for biofilm inhibition (in words): 0.01 wt. %, Example 1; for % biofilm inhibition (B) / % biofilm inhibition efficiency (C): compound 0.01 wt. %; for % biofilm inhibition (B): 48 hours biofilm, reduction in absorbance relative to disks treated with media alone; for % biofilm inhibition efficiency (C): C=B/A×100%
Experimental: as §1, §2, §3

[3] = system: pathogenic biofilm spiked with P. gingivalis; assay: Example 3: pathogenic biofilm model spiked with P. gingivalis; conditions: overall conclusion, no data given
Experimental: A similar experiment was conducted using a pathogenic biofilm model. Biofilms were inoculated as above for the healthy biofilms. Initial bacterial attachment and biofilm formation was allowed to proceed for 4 hours. After the initial 4 hours, each biofilm was spiked with 100 μL of an overnight culture of P. gingivalis. Biofilms were then allowed to grow for another 48 hours prior to trypsin treatment, and absorbance measurements were taken as described above.

[4] = system: Actinomyces naeslundii (ATCC 43146), Lactobacillus casei (ATCC 334), Streptococcus oralis (ATCC 35037), Veillonella parvula (ATCC 17745) and Fusobacterium …; assay: Example 2: planktonic growth (OD600) in healthy biofilm model; conditions: for % planktonic growth inhibition: compound 0.01 wt. %, 24 hours, OD600
Experimental: (§4) A similar test protocol to Example 1 was performed and tested for its effect in the inhibition of planktonic growth and inhibition of biofilm formation
(§5) The species used for biofilm formation were: Actinomyces naeslundii (ATCC 43146). Lactobacillus casei (ATCC 334), Streptococcus oralis (ATCC 35037), Veillonella parvula (ATCC 17745) and Fusobacterium nucleatum (ATCC 10953). Strains were grown under anaerobic conditions at 37° C. for 72 hours. All the bacteria were grown on an anaerobic blood agar.
(§6) The formula for the anaerobic blood agar was as follows: 52 g/l Brain Heart Infusion Agar (DIFCO), and after autoclaving the following products are added: 1 ml/l baemin from a solution 5 mg/ml, 1 ml/l of vitamin K1 from a solution 100 μg/ml and 50 ml of horse blood. A 24 well microtiter for cell culture (Nalgene Nunc International, Denmark) was used to generate in vitro dental biofilms.
(§7) Wells were filled with 800 μl of the mucin growth medium (MGM), a modification of the medium used by Kinniment et al. (Kinniment, S. L., Wimpenny. J. W., Adams, D., and Marsh, P. D. (1996) Development of a steady-state oral microbial biofilm community using the constant-depth film fermenter. Microbiology 142 (Pt 3): 631-638) which presents a high concentration of proteins: 2.5 g/l mucin, 5 g/l Heart Infusion Broth (DIFCO), 2.0 g/l sodium bicarbonate, 1.0 g/l yeast extract and 0.1 g/l cysteine and 4 ml resazurin from a solution 25 mg/100 ml.
The pH is adjusted to 7.4 prior to autoclaving. After autoclaving the following products was added: 1 ml/l haemin from a solution 5 mg/ml and 1 mL/l of vitamin K1 from a solution 100 μg/ml. Sterile hydroxyapatite discs of 7 mm×1.8 mm (Clarkson Inc., USA) was later placed into the wells. […]
(§8) After 24 hours planktonic phase was saved to measure growth at OD600 and hydroxyapatite disks were washed with sterile PBS and stained with safranine 0.1% for 15 minutes. […] Absorbance at 492 nm measures the amount of safranine retained by the biofilm.

[5] = system: biofilm of Actinomyces naeslundii (ATCC 43146), Lactobacillus casei (ATCC 334), Streptococcus oralis (ATCC 35037), Veillonella parvula (ATCC 17745) and …; assay: Example 2: biofilm formation on hydroxyapatite discs (safranine staining, absorbance at 492 nm); conditions: for biofilm inhibition (in words): 0.01 wt. %, Example 2; for % biofilm inhibition: compound 0.01 wt. %, 24 hours, safranine, absorbance at 492 nm
Experimental: as §4, §5, §6, §7
The pH is adjusted to 7.4 prior to autoclaving. After autoclaving the following products was added: 1 ml/l haemin from a solution 5 mg/ml and 1 mL/l of vitamin K1 from a solution 100 μg/ml. Sterile hydroxyapatite discs of 7 mm×1.8 mm (Clarkson Inc., USA) was later placed into the wells. In order to form the acquired pellicle the discs were allowed to stay at least 60 hours in contact with the medium under anaerobic conditions prior inoculation. This period of pre-incubation allows checking for possible contaminations and adjusts the final pH to 7.5.
Each of the strains grown on agar was resuspended in MGM medium until reach a turbidity of a McFarlan 3 (approximately 10^8 CFU/ml). Finally, 1 ml of each suspension from the different strains was mixed and 50 μl of this suspension was added into each of the wells in the microtiter plate. Microtiter plates were incubated under anaerobic conditions at 37° C. in an anaerobic chamber. A control of growth was performed in parallel. […]
as §8

Molecule | % bacterial reduction (A) [1] [%] | biofilm inhibition (in words) [2] | % biofilm inhibition (B) [2] [%] | % biofilm inhibition efficiency (C) [2] | inhibition of oral biofilm formation (in words) [3] | planktonic growth inhibition (in words) ([4]; 0.01 wt. %, Example 2) | % planktonic growth inhibition [4] [%] | biofilm inhibition (in words) [5] | % biofilm inhibition [5] [%] | bacterial reduction (in words) ([1]; 0.01 wt. %, Example 1)
CCCCCCCCCCCCCCCC[n+]1ccccc1 [CPC, cetylpyridinium chloride] | 65.44 | – | – | – | – | – | – | – | – | –
C[C@@H](O)[C@@H](O)[C@H](O)[C@@H](O)C=O [6-deoxy-D-glucose] | 1.54 | effective and efficient inhibitor of biofilm formation | 25.33 | 1644.81% | very good inhibitors of oral biofilm formation | – | – | – | – | –
Oc1cc(Cl)ccc1Oc1ccc(Cl)cc1Cl [Triclosan] | 85.63 | – | – | – | – | – | – | – | – | –
O=CC[C@@H](O)[C@H](O)[C@H](O)CO [2-deoxy-D-glucose] | 9.81 | – | 30.54 | 311.31% | – | – | – | – | – | –
Cl.NCC(O)CCC(N)C(=O)O (racemic) [DL-5-hydroxylysine HCl, reference compound] | 21.45 | negligible biofilm inhibition | 5.85 | 27.27% | – | no planktonic growth inhibition | 0.00 | minimal biofilm inhibition | 5.91 | significant bacterial reduction
N[C@H](C=O)[C@@H](O)[C@H](O)[C@H](O)CO [D-mannosamine, 2-amino-2-deoxy-D-mannose] | – | – | – | – | – | – | 0.00 | effective inhibition of biofilm formation | 34.01 | –
Benzalkonium chloride [reference compound] | 88.21 | – | 52.58 | 59.61% | – | – | – | – | – | –
O=C[C@H](F)[C@@H](O)[C@H](O)[C@H](O)CO [2-fluoro-2-deoxy-D-glucose] | 0.00 | effective and efficient inhibitor of biofilm formation | 46.50 | >>>1000% | very good inhibitors of oral biofilm formation | – | – | – | – | –

Source: US11471394B2, “Oral care compositions containing deoxy sugar antimetabolites” (Colgate-Palmolive Company, priority 2013, dated 2022)
